Measured values from patent US10792373B2, “Drug delivery polymers and uses thereof” (priority 2016, dated 2020).

Legend:
[1] = system: Eμ-Myc p19Arf−/− lymphoma cells; assay: RNAi signature assay (GFP-tagged shRNAs, flow cytometry); assay type: cell-based, murine; details: drug dosed to kill 80-90% of cells at 48 h; GFP positivity at 72 h
Method: RNAi signatures were performed as described previously^2-4. Briefly, Eμ-Myc p19^Arf−/− lymphoma cells were infected at about 30% with GFP-tagged shRNAs. The cells were then treated with drug to kill 80-90% of cells as judged by propidium iodide exclusion via flow cytometry at 48 h. At 72 h, GFP positivity was assessed via flow cytometry. Constrained linear regression was performed in Stata using least-squares fit with individual drug treatments as the predictor variables and the combination signatures as the response variables. The linear regression was constrained such that the sum of the predictor variables had to equal one and none could be negative.
(§1) Eμ-Myc p19Arf−/− lymphoma cells were infected at about 30% with GFP-tagged shRNAs. The cells were then treated with drug to kill 80-90% of cells as judged by propidium iodide exclusion via flow cytometry at 48 h. At 72 h GFP positivity was assessed via flow cytometry. Using the RNAi signature approach, the free drug, prodrug, single-drug-conjugated BASPs, and multi-drug conjugated BASPs illustrated in FIGS. 9A-9C were characterized. […] Next, the RNAi signatures for each of the free drugs and their corresponding prodrug monomers and BASPs were plotted (FIG. 20E) using principal component analysis (PCA). PCA is a means of representing the variance in a multi-dimensional dataset in fewer dimensions. […] One hypothesis that may explain the observed difference between the cisplatin and oxaliplatin prodrug mechanisms is related to the ligand lability of these species. Inside the cell, where the concentration of chloride ions is much lower than in the extracellular milieu (2 to 30 mM for the former compared to ˜100 mM for the latter), the weakly bound chloride ligands of free cisplatin are replaced with aquo ligands. This diaquo species induces cytotoxic inter- or intra-strand DNA cross-links. […] Additionally, utilizing a CisPt-DNA adduct specific antibody, the genomic DNA isolated from murine lymphoma cells after 8 h of drug treatment was analyzed. […]

Top1 = target: T1, Top1 (Mus musculus, UniProt Q04750); assay: GFP competition assay with validated Top1 shRNA; assay type: cell-based, murine
T1 construct: Eμ-Myc p19Arf−/− lymphoma cells were infected at about 30% with GFP-tagged shRNAs; endogenous in cells; host or cells: Eμ-Myc p19Arf-/- murine lymphoma cells
T1 sequence (Q04750 1-767): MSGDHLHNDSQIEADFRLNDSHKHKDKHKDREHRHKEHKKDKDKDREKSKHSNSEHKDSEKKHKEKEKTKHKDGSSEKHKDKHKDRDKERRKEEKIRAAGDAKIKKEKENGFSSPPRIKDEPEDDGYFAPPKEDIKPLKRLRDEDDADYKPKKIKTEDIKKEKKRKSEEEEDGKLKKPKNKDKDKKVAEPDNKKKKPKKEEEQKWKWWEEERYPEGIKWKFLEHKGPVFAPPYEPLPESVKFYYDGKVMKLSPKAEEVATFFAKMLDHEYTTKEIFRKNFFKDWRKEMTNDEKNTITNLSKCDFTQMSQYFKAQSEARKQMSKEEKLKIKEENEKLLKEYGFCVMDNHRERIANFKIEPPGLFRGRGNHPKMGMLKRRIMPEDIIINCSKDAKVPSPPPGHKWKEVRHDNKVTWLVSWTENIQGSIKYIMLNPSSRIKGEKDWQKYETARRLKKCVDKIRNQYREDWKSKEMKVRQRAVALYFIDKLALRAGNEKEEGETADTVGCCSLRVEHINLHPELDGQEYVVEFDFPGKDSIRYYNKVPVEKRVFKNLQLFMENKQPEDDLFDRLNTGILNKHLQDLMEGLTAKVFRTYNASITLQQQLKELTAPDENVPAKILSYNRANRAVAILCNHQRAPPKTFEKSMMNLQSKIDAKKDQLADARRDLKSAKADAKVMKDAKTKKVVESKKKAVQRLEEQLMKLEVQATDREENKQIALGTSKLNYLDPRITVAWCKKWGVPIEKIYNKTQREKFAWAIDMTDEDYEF
Method: (§2) Eμ-Myc p19Arf−/− lymphoma cells were infected at about 30% with GFP-tagged shRNAs. The cells were then treated with drug to kill 80-90% of cells as judged by propidium iodide exclusion via flow cytometry at 48 h. At 72 h GFP positivity was assessed via flow cytometry. Using the RNAi signature approach, the free drug, prodrug, single-drug-conjugated BASPs, and multi-drug conjugated BASPs illustrated in FIGS. 9A-9C were characterized. […] Next, the RNAi signatures for each of the free drugs and their corresponding prodrug monomers and BASPs were plotted (FIG. 20E) using principal component analysis (PCA). PCA is a means of representing the variance in a multi-dimensional dataset in fewer dimensions. […] Inside the cell, where the concentration of chloride ions is much lower than in the extracellular milieu (2 to 30 mM for the former compared to ˜100 mM for the latter), the weakly bound chloride ligands of free cisplatin are replaced with aquo ligands. This diaquo species induces cytotoxic inter- or intra-strand DNA cross-links.

Top2A = target: T2, Top2A (Mus musculus, UniProt Q01320); assay: GFP competition assay with validated Top2A shRNA; assay type: cell-based, murine
T2 construct: Eμ-Myc p19Arf−/− lymphoma cells were infected at about 30% with GFP-tagged shRNAs; endogenous in cells; host or cells: Eμ-Myc p19Arf-/- murine lymphoma cells
Method: as §2

[2] = system: genomic DNA isolated from murine lymphoma cells; assay: Cisplatin-DNA adduct detection with a CisPt-DNA adduct specific antibody; assay type: cell-based; details: after 8 h of drug treatment
Method: as §1

T2 sequence (Q01320 whole entry): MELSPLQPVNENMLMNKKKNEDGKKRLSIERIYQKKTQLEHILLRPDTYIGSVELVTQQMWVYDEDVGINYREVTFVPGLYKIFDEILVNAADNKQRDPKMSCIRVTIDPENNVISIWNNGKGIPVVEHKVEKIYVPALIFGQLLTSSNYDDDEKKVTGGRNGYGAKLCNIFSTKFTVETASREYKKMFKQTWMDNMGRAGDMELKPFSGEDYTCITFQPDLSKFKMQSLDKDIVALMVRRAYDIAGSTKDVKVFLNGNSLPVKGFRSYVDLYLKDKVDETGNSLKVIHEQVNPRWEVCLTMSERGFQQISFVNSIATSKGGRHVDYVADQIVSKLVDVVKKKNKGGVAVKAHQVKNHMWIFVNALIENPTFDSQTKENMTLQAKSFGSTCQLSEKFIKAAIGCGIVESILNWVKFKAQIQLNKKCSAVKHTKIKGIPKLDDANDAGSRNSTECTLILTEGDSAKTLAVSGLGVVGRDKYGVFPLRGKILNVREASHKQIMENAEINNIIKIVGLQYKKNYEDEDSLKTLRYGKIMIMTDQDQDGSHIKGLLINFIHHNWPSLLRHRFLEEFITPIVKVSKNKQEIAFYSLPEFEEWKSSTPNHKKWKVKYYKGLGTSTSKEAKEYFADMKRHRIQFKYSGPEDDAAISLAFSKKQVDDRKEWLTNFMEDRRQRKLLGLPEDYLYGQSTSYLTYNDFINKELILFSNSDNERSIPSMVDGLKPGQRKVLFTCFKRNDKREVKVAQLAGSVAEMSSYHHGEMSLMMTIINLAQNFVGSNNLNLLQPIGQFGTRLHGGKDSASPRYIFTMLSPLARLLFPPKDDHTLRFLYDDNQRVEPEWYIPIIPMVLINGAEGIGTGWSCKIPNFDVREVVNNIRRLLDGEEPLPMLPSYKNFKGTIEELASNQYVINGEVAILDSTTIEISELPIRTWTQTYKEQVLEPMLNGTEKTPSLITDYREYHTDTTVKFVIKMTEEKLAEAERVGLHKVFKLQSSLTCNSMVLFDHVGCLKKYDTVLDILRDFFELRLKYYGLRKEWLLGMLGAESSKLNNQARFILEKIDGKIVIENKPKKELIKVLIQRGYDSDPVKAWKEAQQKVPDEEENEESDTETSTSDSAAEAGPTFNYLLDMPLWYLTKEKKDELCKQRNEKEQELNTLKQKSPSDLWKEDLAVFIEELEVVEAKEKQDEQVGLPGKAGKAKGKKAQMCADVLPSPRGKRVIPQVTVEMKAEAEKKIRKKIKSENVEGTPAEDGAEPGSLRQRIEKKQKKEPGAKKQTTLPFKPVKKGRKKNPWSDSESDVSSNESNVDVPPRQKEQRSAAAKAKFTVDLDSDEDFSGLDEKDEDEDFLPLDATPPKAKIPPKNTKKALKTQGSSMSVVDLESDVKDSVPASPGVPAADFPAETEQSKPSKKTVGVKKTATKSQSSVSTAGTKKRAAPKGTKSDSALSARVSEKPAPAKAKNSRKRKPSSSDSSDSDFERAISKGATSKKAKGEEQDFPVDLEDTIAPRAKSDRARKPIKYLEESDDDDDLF

Row | SMILES | RNAi signature classification (mechanism of action) [1] | response of cells with knockdown of Top1 (Top1) | response of cells harboring the Top2A shRNA (Top2A) | Cisplatin-DNA adducts [2]
1 | CC[C@@]1(O)C(=O)OCc2c1cc1n(c2=O)Cc2cc3ccccc3nc2-1 [CPT, camptothecin] | Topoisomerase I (Top1) poisons | resistance | sensitivity | 
2 | COc1cccc2c1C(=O)c1c(O)c3c(c(O)c1C2=O)C[C@@](O)(C(=O)CO)C[C@@H]3O[C@H]1C[C@H](N)[C@H](O)[C@H](C)O1 [DOX, doxorubicin] | Topoisomerase II (Top2) poison | sensitivity | resistant | 
3 | N.N.[Cl][Pt][Cl] [CisPt, cisplatin] |  |  |  | detected
4 | O=C1[O][Pt]2([NH][C@@H]3CCCC[C@H]3[NH]2)[O]C1=O [OxPt, oxaliplatin] | transcription/translation inhibitors |  |  | 
